Reference: paper PMC11899342, “Novel Triazeneindole Antibiotics: Synthesis and Hit-to-Lead Optimization” (International Journal of Molecular Sciences, 2025)

Legend:
[1] = Stability in artificial gastric juice; format: in vitro ADME; settings: pH 1.2, pepsin, 37 °C, read-out: t1/2 in artificial gastric juice
Experimental: During ADME studies, the concentration of the compounds was analyzed using ultra-performance liquid chromatography (UPLC) coupled with tandem mass spectrometry (MS/MS) in the multiple reaction monitoring (MRM) mode. A quantitative analysis was performed using the internal standard (IS) calibration method, with tolbutamide as the IS.
The analyses were carried out on a system composed of an Agilent 1290 Infinity UPLC system (Agilent Technologies, USA) connected by ESI interface to a tandem quadrupole mass spectrometer QTRAP 6500 (AB Sciex Corp, Framingham, MA, USA). The separation was conducted on an YMC Triart C18 50 × 2 mm, 1.9 μm column, which was kept at 35 °C. The samples were cooled to 8 °C in an autosampler, and aliquots of 1 µL were delivered onto the column. Elution was performed using gradients of A (0.1% formic acid in water) and B (0.1% formic acid in acetonitrile), at the flow rate 0.35 mL/min. […] The declustering potential was 31 V for BX and 93 V for IS, resepectively; the collision energy was attuned to 17 eV; the collision cell exit potential was 10 V for BX and 8 V for IS MRM, respectively; the analyses were recorded for 305 → 234 (BX) and 271 → 172 (tolbutamide). […]

hERG K+-ion channel = molecular target: T1, hERG K+-ion channel (Homo sapiens, UniProt Q12809); assay: Predictor hERG fluorescence polarization assay; format: binding; settings: tracer displacement, up to 50 µM
T1 construct: purchased Invitrogen
Experimental: Determination of the binding of the BX-SI043 compound to the hERG K^+-ion channel was carried out using the Predictor hERG Fluorescence Polarization Assay Kit (Invitrogen, USA) at concentrations of 0.016, 0.08, 0.4, 2, 10, and 50 µM, according to the manufacturer’s instructions. This method is based on the measurement of the changing fluorescence polarization caused by the displacement of the high-affinity fluorescent tracer by the tested compound. A selective inhibitor of the hERG channels E-4031 was used as a control compound. Briefly, a 2X solution of membranes, containing hERG channels, was prepared and placed in 384-well plate. The tested substance, the control substance, the buffer, and the tracer were placed in the corresponding wells and incubated in the dark at room temperature for 2 h. Fluorescence polarization measurement was conducted on an Infinite M1000 PRO plate reader with the following parameters: 10 flashes per well; an excitation center wavelength of 530 nm, with a bandwidth of 5 nm; an emission center wavelength of 585 nm, with a bandwidth of […]. The calculation of the IC50 half-maximal inhibition concentration values was performed in GraphPad Prism 6.0 (GraphPad Software Inc.), based on the equations of the experimental curves.

T1 sequence (Q12809 whole entry): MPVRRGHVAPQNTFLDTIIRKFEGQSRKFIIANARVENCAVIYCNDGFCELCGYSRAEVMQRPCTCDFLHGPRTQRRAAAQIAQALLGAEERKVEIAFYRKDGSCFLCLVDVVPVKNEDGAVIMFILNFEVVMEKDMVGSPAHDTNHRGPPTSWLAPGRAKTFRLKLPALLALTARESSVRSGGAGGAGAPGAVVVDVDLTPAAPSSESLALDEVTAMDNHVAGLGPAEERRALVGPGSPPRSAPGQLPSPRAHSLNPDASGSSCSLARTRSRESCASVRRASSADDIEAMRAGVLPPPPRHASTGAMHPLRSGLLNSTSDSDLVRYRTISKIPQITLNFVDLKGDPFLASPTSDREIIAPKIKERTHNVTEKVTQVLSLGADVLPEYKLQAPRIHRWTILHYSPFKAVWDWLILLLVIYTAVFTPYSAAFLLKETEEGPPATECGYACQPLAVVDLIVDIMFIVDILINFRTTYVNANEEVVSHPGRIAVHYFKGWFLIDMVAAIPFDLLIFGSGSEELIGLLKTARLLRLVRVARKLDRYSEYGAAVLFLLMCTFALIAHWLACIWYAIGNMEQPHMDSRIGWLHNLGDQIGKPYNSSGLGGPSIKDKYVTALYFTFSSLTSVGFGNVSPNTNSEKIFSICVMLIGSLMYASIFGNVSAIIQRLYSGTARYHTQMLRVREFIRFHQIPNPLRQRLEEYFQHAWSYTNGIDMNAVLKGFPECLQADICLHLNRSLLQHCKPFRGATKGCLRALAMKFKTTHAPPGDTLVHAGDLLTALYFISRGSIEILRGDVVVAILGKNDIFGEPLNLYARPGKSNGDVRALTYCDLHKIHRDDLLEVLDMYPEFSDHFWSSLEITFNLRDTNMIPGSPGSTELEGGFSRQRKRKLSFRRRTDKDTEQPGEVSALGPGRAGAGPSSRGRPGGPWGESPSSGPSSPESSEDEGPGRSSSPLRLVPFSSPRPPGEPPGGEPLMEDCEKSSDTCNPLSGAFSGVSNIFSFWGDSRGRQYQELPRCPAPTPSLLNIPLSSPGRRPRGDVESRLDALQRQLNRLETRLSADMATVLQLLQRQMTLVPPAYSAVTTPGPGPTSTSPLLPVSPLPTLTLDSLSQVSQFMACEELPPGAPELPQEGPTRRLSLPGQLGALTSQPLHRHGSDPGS

CCOC(=O)c1[nH]c2cc(F)ccc2c1/N=N/N1CCCC1 [BX-SI043, Ethyl (E)-6-fluoro-3-(pyrrolidin-1-yldiazenyl)-1H-indole-2-carboxylate]
half-life at 1 µM [1]: < 10 min
IC50 (hERG K+-ion channel): > 50 µM
